US5017604A, “Novel fenamic acid methyl hydroxamate derivatives having cyclooxygenase and 5-lipoxygenase inhibition” (Warner-Lambert Company, priority 1990, dated 1991)

Tests used:
Type in all cases: cell-based
5-lipoxygenase [1] = molecular target: T1, 5-lipoxygenase (Rattus norvegicus, UniProt P12527); experiment: ARBL whole cell 5-lipoxygenase assay (RBL-1 cells, LTB4 formation by RIA); conditions: RBL-1 whole cells; for inhibition at 10 µM / inhibition at 16 µM: read-out: ARBL % inhibition at the given micromolar concentration (LTB4 formation); for IC50: A23187 5 μM, read-out: ARBL IC50 (50% inhibition of LTB4 formation)
T1 construct: host or cells: RBL-1 (rat basophilic leukemia) cells
T1 sequence (P12527 1-673): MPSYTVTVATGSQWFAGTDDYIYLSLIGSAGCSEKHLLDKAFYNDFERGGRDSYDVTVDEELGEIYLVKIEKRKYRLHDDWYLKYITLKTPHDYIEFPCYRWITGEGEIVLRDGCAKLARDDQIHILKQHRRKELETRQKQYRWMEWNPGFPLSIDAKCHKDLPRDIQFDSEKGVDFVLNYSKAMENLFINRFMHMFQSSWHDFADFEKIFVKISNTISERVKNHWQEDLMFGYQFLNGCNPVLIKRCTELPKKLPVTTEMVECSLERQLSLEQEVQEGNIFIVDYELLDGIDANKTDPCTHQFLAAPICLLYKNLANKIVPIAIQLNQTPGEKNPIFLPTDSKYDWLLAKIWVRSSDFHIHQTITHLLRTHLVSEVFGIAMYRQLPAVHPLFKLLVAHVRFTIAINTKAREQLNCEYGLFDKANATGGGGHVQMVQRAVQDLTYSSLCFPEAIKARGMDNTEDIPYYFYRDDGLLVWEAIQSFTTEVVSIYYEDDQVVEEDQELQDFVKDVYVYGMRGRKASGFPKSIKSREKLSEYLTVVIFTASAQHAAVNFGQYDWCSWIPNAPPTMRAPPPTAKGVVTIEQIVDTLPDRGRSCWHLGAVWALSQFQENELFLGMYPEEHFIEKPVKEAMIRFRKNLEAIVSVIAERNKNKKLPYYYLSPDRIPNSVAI
Method: (§1) ARBL/ARBC Whole Cell 5-Lipoxygenase and Cyclooxyqenase Assays
(§2) The rat basophilic leukemia cell line (RBL-1) was obtained from the American Type Culture Collection (Rockville, Md.).
(§3) Radioimmunoassay (RIA) kits for LTB4 and PGF2α determination were obtained from Amersham (Arlington Heights, Ill.) and Seragen (Boston, Mass.), respectively.
(§4) RBL-1 cells are grown in suspension culture in Eagle's minimum essential medium supplemented with 12% fetal bovine serum at 37° C. in an incubator supplied with air-5% carbon dioxide. Cells are harvested by centrifugation. They are washed with cold phosphate buffered saline pH 7.4 (PBS; NaCl, 7.1 g; Na2 HPO4, 1.15 g; KH2 PO4, 0.2 g; and KCl, 0.2 g/L). Cells are finally suspended in PBS containing 1.0 mM calcium at a density of 2×10^6 cells/mL. Cells are incubated with and without test agent (in DMSO) (1% DMSO is without effect on arachidonic acid metabolism) for 10 minutes at room temperature. Calcium inonophore A23187 (5 μM) is added and cells are incubated for 7 minutes at 37° C. The reaction is stopped by chilling the tubes on ice for 10 minutes. Cells are separated by centrifugation and the supernatant is stored at -20° . Aliquots (100 μL) are analyzed for LTB4 and PGF2α using radioimmunoassay kits as provided by the supplier.
(§5) Table 1 contains biochemical data obtained from this whole cell assay as IC50 s which are calculated as the concentration of test compound causing 50% inhibition of LTB4 or PGF2α formation or in percent inhibition at the given micromolar concentration. N at 10 or 16 is not active at 10 μmolar or 16 μmolar.

cyclooxygenase [2] = molecular target: T2, cyclooxygenase (Rattus norvegicus, UniProt Q63921); experiment: ARBC whole cell cyclooxygenase assay (RBL-1 cells, PGF2α formation by RIA); parameters: key: N @ 10 μmolar is not active at 10 μmolar; conditions: RBL-1 whole cells; @ 10 μM
T2 construct: host or cells: RBL-1 (rat basophilic leukemia) cells
T2 sequence (Q63921 27-602): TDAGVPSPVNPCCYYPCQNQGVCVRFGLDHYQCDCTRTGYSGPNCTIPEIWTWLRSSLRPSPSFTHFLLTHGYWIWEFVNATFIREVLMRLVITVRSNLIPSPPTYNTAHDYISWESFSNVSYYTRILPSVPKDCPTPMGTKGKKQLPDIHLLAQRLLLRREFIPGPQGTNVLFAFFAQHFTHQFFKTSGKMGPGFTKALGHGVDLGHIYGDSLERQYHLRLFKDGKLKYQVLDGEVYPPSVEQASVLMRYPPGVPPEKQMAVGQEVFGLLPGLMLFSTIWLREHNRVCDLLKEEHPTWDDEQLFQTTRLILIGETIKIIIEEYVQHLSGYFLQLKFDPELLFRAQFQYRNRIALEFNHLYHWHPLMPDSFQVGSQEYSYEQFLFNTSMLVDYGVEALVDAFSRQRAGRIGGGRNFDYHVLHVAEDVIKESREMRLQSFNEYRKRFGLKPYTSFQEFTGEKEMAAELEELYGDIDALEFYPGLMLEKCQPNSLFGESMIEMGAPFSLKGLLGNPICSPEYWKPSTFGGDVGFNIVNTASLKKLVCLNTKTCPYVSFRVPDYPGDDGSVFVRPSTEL
Method: as §1, §2, §3
as §4, with “supplier. […]” for “supplier.”

cyclooxygenase [3] = molecular target: T2, cyclooxygenase; experiment: as above; conditions: RBL-1 whole cells; for IC50: A23187 5 μM, read-out: ARBC IC50 (50% inhibition of PGF2α formation)
Method: as §1, §2, §3, §4, §5

cyclooxygenase [4] = molecular target: T2, cyclooxygenase; experiment: as above; parameters: key: N @ 16 μmolar is not active at 16 μmolar; conditions: RBL-1 whole cells; @ 16 μM
Method: as §1, §2, §3, §4, §5

5-lipoxygenase [5] = molecular target: T1, 5-lipoxygenase; experiment: ARBL whole cell 5-lipoxygenase assay (RBL-1 cells, LTB4 formation by RIA); parameters: key: N @ 10 μmolar is not active at 10 μmolar; conditions: RBL-1 whole cells; @ 10 μM
Method: as §1, §2, §3, §4, §5

5-lipoxygenase [6] = molecular target: T1, 5-lipoxygenase; experiment: as above; parameters: key: N @ 16 μmolar is not active at 16 μmolar; conditions: RBL-1 whole cells; @ 16 μM
Method: as §1, §2, §3, §4, §5

[7] = read-out: ARBC % inhibition at the given micromolar concentration (PGF2α formation)

**Q.** Which inhibition at 10 µM (5-lipoxygenase [1]) does the source give for `COC(=O)c1ccccc1Nc1cccc(C(C)N(O)C(C)=O)c1Cl` (stereo not drawn) [Example 33, 2-[[3-[1-(acetylhydroxyamino)ethyl]-2-chlorophenyl]amino]benzoic acid methyl ester] here?
**A.** 100%

**Q.** What about the “ARBC activity (N = not active)” value (cyclooxygenase [2]) of the same compound?
**A.** N

**Q.** For `COC(=O)c1ccccc1Nc1cccc(CN(O)C(C)=O)c1C` [Example 34], which IC50 (5-lipoxygenase [1]) is on record?
**A.** < 62.5 nM

**Q.** What about the IC50 (cyclooxygenase [3]) of the same compound?
**A.** 10000 nM

**Q.** `COC(=O)c1ccccc1Nc1cccc(C(C)N(O)C(C)=O)c1C` (stereo not drawn) [Example 35] was tested. Which inhibition at 10 µM (5-lipoxygenase [1]) did it give?
**A.** 100%

**Q.** And the “ARBC activity (N = not active)” value (cyclooxygenase [2])?
**A.** N

**Q.** `COC(=O)c1ccccc1Nc1c(C)ccc(C(C)N(O)C(C)=O)c1C` (stereo not drawn) [Example 36] was tested. Which inhibition at 16 µM (5-lipoxygenase [1]) did it give?
**A.** 100%

**Q.** What about the “ARBC activity (N = not active)” value (cyclooxygenase [4]) of the same compound?
**A.** N

**Q.** What does the source list for `COC(=O)c1ccccc1Nc1cccc(CN(O)C(C)=O)c1Cl` [Example 37]?
**A.** IC50 (5-lipoxygenase [1]): 580 nM; IC50 (cyclooxygenase [3]): 4300 nM

**Q.** With `COC(=O)c1ccccc1Nc1c(Cl)ccc(CN(O)C(C)=O)c1Cl` [Example 38] as the compound, how does the IC50 (5-lipoxygenase [1]) read?
**A.** 360 nM

**Q.** And the IC50 (cyclooxygenase [3])?
**A.** 6000 nM

**Q.** What does the source list for `COC(=O)c1ccccc1Nc1c(Cl)ccc(C(C)N(O)C(C)=O)c1Cl` (stereo not drawn) [Example 39]?
**A.** inhibition at 10 µM (5-lipoxygenase [1]): 100%; inhibition at 10 µM (cyclooxygenase [3]; [7]): 52%

**Q.** What does the source list for `CCOC(=O)N(O)Cc1cccc(Nc2ccccc2C(=O)OC)c1Cl` [Example 40, 2-[[2-chloro-3-[[(ethoxycarbonyl)hydroxyamino]methyl]phenyl]amino]benzoic acid, methyl ester]?
**A.** IC50 (5-lipoxygenase [1]): 210 nM; IC50 (cyclooxygenase [3]): 670 nM

**Q.** Which IC50 (5-lipoxygenase [1]) does the source give for `CCOC(=O)N(O)Cc1cccc(Nc2ccccc2C(=O)OC)c1C` [Example 41, 2-[[3-[[(Ethoxycarbonyl)hydroxyamino]methyl]-2-methylphenyl]amino]benzoic acid methyl ester] here?
**A.** 390 nM

**Q.** What about the IC50 (cyclooxygenase [3]) of the same compound?
**A.** 8700 nM

**Q.** How did the IC50 (5-lipoxygenase [1]) turn out when `CCOC(=O)N(O)Cc1ccc(Cl)c(Nc2ccccc2C(=O)OC)c1Cl` [Example 42] was run?
**A.** 330 nM

**Q.** And the IC50 (cyclooxygenase [3])?
**A.** 3700 nM

**Q.** `CCOC(=O)N(O)C(C)c1ccc(C)c(Nc2ccccc2C(=O)OC)c1C` (stereo not drawn) [Example 43] was tested. Which inhibition at 16 µM (5-lipoxygenase [1]) did it give?
**A.** 100%

**Q.** What about the “ARBC activity (N = not active)” value (cyclooxygenase [4]) of the same compound?
**A.** N

**Q.** How did the inhibition at 16 µM (5-lipoxygenase [1]) turn out when `CNC(=O)N(O)Cc1cccc(Nc2ccccc2C(=O)OC)c1C` [Example 44, 2-[[3-[[Hydroxy[(methylamino)carbonyl]amino]methyl]-2-methylphenyl]amino]benzoic acid methyl ester] was run?
**A.** > 95%

**Q.** And the inhibition at 16 µM (cyclooxygenase [3]; [7])?
**A.** 43%

**Q.** Which results are given for `CNC(=O)N(O)Cc1cccc(Nc2ccccc2C(=O)OC)c1Cl` [Example 46, 2-[[2-Chloro-3-[[hydroxy[(methylamino)carbonyl]amino]methyl]phenyl]amino]benzoic acid methyl ester]?
**A.** IC50 (5-lipoxygenase [1]): 360 nM; IC50 (cyclooxygenase [3]): 4700 nM

**Q.** For `CC(=O)N(O)C(C)c1cccc(Nc2ccccc2C(=O)O)c1Cl` (stereo not drawn) [Example 47], which inhibition at 10 µM (cyclooxygenase [3]; [7]) is on record?
**A.** 79%

**Q.** What about the “ARBL activity (N = not active)” value (5-lipoxygenase [5]) of the same compound?
**A.** N

**Q.** With `CC(=O)N(O)Cc1cccc(Nc2ccccc2C(=O)O)c1C` [Example 48] as the compound, how does the IC50 (cyclooxygenase [3]) read?
**A.** 1900 nM

**Q.** And the “ARBL activity (N = not active)” value (5-lipoxygenase [5])?
**A.** N

**Q.** Which inhibition at 0.25 µM (cyclooxygenase [3]; @ 0.25 μM, read-out: ARBC % inhibition at the given micromolar concentration (PGF2α formation)) does the source give for `CCOC(=O)N(O)Cc1cccc(Nc2ccccc2C(=O)O)c1C` [Example 49] here?
**A.** 67%

**Q.** What about the “ARBL activity (N = not active)” value (5-lipoxygenase [6]) of the same compound?
**A.** N

**Q.** With `CNC(=O)N(O)Cc1cccc(Nc2ccccc2C(=O)O)c1C` [Example 50] as the compound, how does the inhibition at 16 µM (cyclooxygenase [3]; [7]) read?
**A.** 56%

**Q.** And the “ARBL activity (N = not active)” value (5-lipoxygenase [6])?
**A.** N

**Q.** Which inhibition at 10 µM (cyclooxygenase [3]; [7]) does the source give for `CC(=O)N(O)C(C)c1cccc(Nc2ccccc2C(=O)O)c1C` (stereo not drawn) [Example 51] here?
**A.** 70%

**Q.** And the “ARBL activity (N = not active)” value (5-lipoxygenase [6])?
**A.** N

**Q.** Which “ARBL activity (N = not active)” value (5-lipoxygenase [6]) does the source give for `CC(=O)N(O)C(C)c1ccc(C)c(Nc2ccccc2C(=O)O)c1C` (stereo not drawn) [Example 52] here?
**A.** N

**Q.** What about the “ARBC activity (N = not active)” value (cyclooxygenase [4]) of the same compound?
**A.** N

**Q.** Which results are given for `CCOC(=O)N(O)C(C)c1ccc(C)c(Nc2ccccc2C(=O)O)c1C` (stereo not drawn) [Example 53]?
**A.** inhibition at 16 µM (cyclooxygenase [3]; [7]): 53%; ARBL activity (N = not active) (5-lipoxygenase [6]): N

**Q.** With `CC(=O)N(O)Cc1cccc(Nc2ccccc2C(=O)O)c1Cl` [Example 54] as the compound, how does the inhibition at 10 µM (cyclooxygenase [3]; [7]) read?
**A.** 87%

**Q.** What about the “ARBL activity (N = not active)” value (5-lipoxygenase [5]) of the same compound?
**A.** N

**Q.** For `CC(=O)N(O)Cc1ccc(Cl)c(Nc2ccccc2C(=O)O)c1Cl` [Example 55], which inhibition at 10 µM (cyclooxygenase [3]; [7]) is on record?
**A.** 83%

**Q.** What about the “ARBL activity (N = not active)” value (5-lipoxygenase [5]) of the same compound?
**A.** N

**Q.** What does the source list for `CCOC(=O)N(O)Cc1ccc(Cl)c(Nc2ccccc2C(=O)O)c1Cl` [Example 56]?
**A.** inhibition at 16 µM (5-lipoxygenase [1]): 47%; inhibition at 16 µM (cyclooxygenase [3]; [7]): 89%

**Q.** `CC(=O)N(O)C(C)c1ccc(Cl)c(Nc2ccccc2C(=O)O)c1Cl` (stereo not drawn) [Example 57] was tested. Which inhibition at 10 µM (cyclooxygenase [3]; [7]) did it give?
**A.** 53%

**Q.** And the “ARBL activity (N = not active)” value (5-lipoxygenase [5])?
**A.** N
